Laboratory results from patent publication US20220184077A1, “ANTI-VIRAL ACTIVITY OF VPS34 INHIBITORS” (Deciphera Pharmaceuticals, LLC, priority 2020, published 2022).
Like-named read-outs stand apart in the source and are kept apart here.

How the values were obtained:
[1] = system: coronavirus USA_WA1/2020 SARS CoV-2; assay: SARS CoV-2 CPE assay for antiviral activity (Vero E6 host cells, Cell Titer-Glo); format: cell-based; settings: read-out: IC50 for inhibition of SARS CoV-2 mediated cell killing
in vitro [2] = format: cell-based; settings: African green monkey
Description: Compound cytotoxicity (CC50) is assessed in a BSL-2 counter screen as follows: Host cells in media are added in 25 μl aliquots (4000 cells/well) to each well of assay ready plates prepared with test compounds as above. […] DMSO is maintained at a constant concentration for all wells (0.3%) as dictated by the dilution factor of stock test compound concentrations. After incubating plates at 37° C./5% CO2 and 90% humidity for 72 hours, 30 μl Cell Titer-Glo (Promega) is added to each well. Luminescence is read using a BMG PHERAstar plate reader following incubation at room temperature for 10 minutes to measure cell viability.

in vitro [3] = settings: human
SARS-CoV-2 = assay: microbe, parasite or virus in culture; format: cell-based; settings: Severe acute respiratory syndrome coronavirus 2, A549-ACE2, 48 h; read-out: IC50 for inhibition of SARS CoV-2 mediated cell killing
[4] = Vero C1008, Vero E6 cells, 72 hours, 10-point dose response, high concentration 15 μM

SMILES | IC50 [1, 4] | CC50 at 72 h (in vitro [2]) | CC50 (in vitro [3]) | IC50 (SARS-CoV-2) | IC50 ([1]; Vero C1008, 72 h)
Cc1nccc(Nc2cc(-c3cc(-c4cccnc4C(F)(F)F)[nH]c(=O)c3)ccn2)n1 [Compound 1] | 0.12 µM | > 30 µM | 2 µM | 0.059 µM | 
Cc1nccc(Nc2cc(-c3cc(-c4ccccc4Cl)[nH]c(=O)c3)ccn2)n1 [Compound 2] | < 0.02 µM | 0.482 µM | 0.159 µM | < 0.02 µM | 
Cc1nccc(Nc2cc(-c3cc(-c4ccccc4C(F)(F)F)n(C)c(=O)c3)ccn2)n1 [Compound 3] |  | 1960 µM | 1370 µM | < 0.02 µM | 0.036 µM
CCS(=O)(=O)N1CCN(c2cc(-c3ccnc(Nc4ccnc(C)n4)c3)cc(=O)[nH]2)C(C(F)(F)F)C1 (stereo not shown) [Compound 4] |  | 2760 µM | 0.557 µM | 0.035 µM | 0.109 µM
